Assay [1] in a line: Free radical scavenging activity on ABTS radical cation (absorbance at 730nm). The class given is biochemical. In outline:
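ABTS radical cation generated with peroxidase and H2O2 in PBS pH 7.4, incubated 30°C for 30 min. Drug serially diluted in PBS from 0.1mM stock, mixed with radical solution and absorbance read immediately at 730nm against PBS blank. Percent antioxidant activity = [O.D test/O.D control*100]-100.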

For assay [2], the system named is Maillard reaction. The assay can be described thus: AGE inhibiting activity, Method I (BSA + ribose, fluorescence). The class given is biochemical. Conditions: 37° C for 7 days.
Protocol: The following method was used to determine the inhibitory effect of the test compound on Maillard reaction in-vitro.
Addition of compound was done in aseptic conditions. Sodium azide (0.02%) was also added in this solution in order to prevent microbial growth. A separate tube containing BSA, ribose and sodium azide in the same concentration and buffer as above, but without any test compound, was also incubated as positive control.
After incubation at 37° C for 7 days, 40 micro litre sample from each tube was removed and diluted with PBS to have final concentration of BSA at 1mg/ml. The fluorescence of all the samples was measured at Excitation Maximum of 355nM and the Emission Maximum of 460nM using f-MAX Fluorimeter (Molecular Device, USA). In order to study the effect of test compound on fluorescence, freshly prepared compound solution was mixed with previously incubated positive control (i.e. BSA + ribose), so as to achieve same concentration of all the components as that of test samples.
The percent inhibition of test compound was measured as follows: % Inhibition =(F4 - F3)/(F4)X 100 [formula] Where F3 = Fluorescence of BSA + ribose + compound,F4 is fluorescence of incubated (BSA + ribose) + freshly added test compound.
Assay [3] concerns Rat Tail Tendon Collagen. The assay can be described thus: In-vivo AGE breaking: collagen solubility in rat tail tendon of STZ-diabetic rats after 8 weeks of treatment. Conditions: 8 weeks treatment. Also on record: species or system male wister rats. From the text:
The results are mentioned in Table 3 below:
A brief summary of observation is as follows.

Assay [4] concerns the target T1, AGE-BSA (Bos taurus, UniProt P02769).
T1 construct: Bovine serum albumin (fraction V) (BSA); from tissue
The assay can be described thus: In-vitro AGE breaking activity by ELISA (16 weeks AGE-BSA incubated with test compound). It counts as biochemical, bovine. The following applies: for % Breakage: 37°C, 24 hours. (ELISA stands for enzyme-linked immunosorbent assay.)
Protocol: AGE breaking activity has been confirmed by the screening procedure as mentioned below: • Materials: • Bovine serum albumin (fraction V) (BSA) • Glucose, analytical grade • Phosphate buffered saline (PBS) • Equipment: • Microplate ELISA Reader - Spectramax Plus (Molecular Devices, USA) • Microplate washer, (Bio -Tec Instruments, USA) • pH meter • Methods of experiment: Elisa (Enzyme Linked Immunosorbent Assay) 160 mg/ml of protein, bovine serum albumin, BSA and 1.6M glucose sugar were dissolved in phosphate buffered saline, PBS. Sodium azide was added at 0.02% concentration as a preservative. The solution was filtered asceptically through a 0.22 µM filter and kept for aging at 37°C for 16 weeks. After 16 weeks the solution was dialyzed against PBS, aliquoted and stored at - 20°C.
To determine the AGE breaking activity, 10 µg/ml of the 16 weeks AGE-BSA was incubated with different concentrations of the test compounds at 37°C for 24 hours and AGE breaking activity of the test compounds by ELISA was determined.
Different concentrations of 16 weeks AGE-BSA were coated on a microtitre plate as standard. Each concentration is coated in triplicates. • 2. The test samples were coated on microtitre plate at a concentration of 5 ng. to 20 ng per well in triplicates. • 3. The plate was incubated at 37°C for one hour. • 4. After incubation the plate was washed with PBST (PBS with 0.05% Tween 20). • 5. Blocking with 5% skimmed milk in PBS at 37°C for one hour was done. • 6. The plate was washed with PBST. • 7. Primary antibody against AGE-BSA was added and the plate is incubated at 37°C for one hour. • 8. The plate was washed with PBST • 9. Secondary antibody anti rabbit HRPO (Horse-Radish Per Oxidase) conjugate was added and the plate is incubated at 37°C for one hour. • 10. The plate was washed with PBST. • 11. Colour development with OPD (orthophenylenediamine dihydrochloride) and hydrogen peroxide was done. • 12. OD (optical density) at (450nm reading - 620nm reading) was measured after incubation at 37°C for 15 minutes with Microplate ELISA Reader.
The breaker activity of the compounds were determined by the following formula: % Breaker activity =(OD450-620 Control - OD450-620 Test)/(OD450-620 Control)x 100 [formula] OD450-620Control= Absorbance of 20ng AGE-BSA after incubation at 37°C for 24 hours without test compound OD450-620Test= Absorbance of 20ng AGE-BSA after incubation at 37°C for 24 hours with required concentration of test compound

Where [5] appears, read: comparison in words based on Table 2.

The results in this text go back to patent EP1304101A1, “Composition and method for use of pyridinium derivatives in cosmetic and therapeutic applications” (Torrent Pharmaceuticals Ltd, priority 2001, dated 2003).

T1 sequence (P02769 25-607): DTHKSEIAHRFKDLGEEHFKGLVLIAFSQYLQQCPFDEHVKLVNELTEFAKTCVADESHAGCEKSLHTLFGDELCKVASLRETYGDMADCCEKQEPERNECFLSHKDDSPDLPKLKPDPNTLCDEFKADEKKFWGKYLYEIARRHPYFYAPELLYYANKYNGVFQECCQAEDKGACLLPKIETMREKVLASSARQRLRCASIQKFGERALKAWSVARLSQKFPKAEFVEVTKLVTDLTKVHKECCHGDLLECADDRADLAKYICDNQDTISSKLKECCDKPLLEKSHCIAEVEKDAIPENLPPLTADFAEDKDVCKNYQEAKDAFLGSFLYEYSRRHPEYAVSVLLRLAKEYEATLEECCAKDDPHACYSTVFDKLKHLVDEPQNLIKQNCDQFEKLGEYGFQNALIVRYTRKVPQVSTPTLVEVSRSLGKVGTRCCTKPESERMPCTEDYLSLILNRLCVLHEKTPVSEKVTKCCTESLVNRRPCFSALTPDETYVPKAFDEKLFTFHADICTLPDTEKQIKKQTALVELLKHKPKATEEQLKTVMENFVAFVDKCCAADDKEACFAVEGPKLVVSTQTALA

For `CS(=O)(=O)NNC(=O)c1ccc[n+](CC(=O)c2cccs2)c1.[Br-]` [Compound 5, 1-(2-thien-2'-yl-2-oxoethyl) -3-(methanesulfonylhydrazinocarbonyl) pyridinium bromide], the “Relative Free Radical Scavenging Activity(%) on ABTS” value in assay [1] (11.5µM) turned out to be 47.2%; in assay [1] (23.0µM) it was 65.6%; in assay [1] (46.0µM), 83.7%; in assay [1] (92.5µM), 100%. The “%Inhibition (Day 7)” value in assay [2] (10mM) is 70%. The “% Improvement in collagen solubility with respect to untreated control subject.” value (from here on “% Improvement in collagen solubility”) in assay [3] (10.0mg/kg) was 88.80%. Besides, the “% Breakage” value in assay [4] (10 mM test compound) is 16%; in assay [4] (50 mM test compound), 68%.

For `O=C(NNC(=O)c1ccc[n+](CC(=O)c2cccs2)c1)c1ccc[n+](CC(=O)c2cccs2)c1.[Br-].[Br-]` [Compound 6, N, N'-bis [3-carbonyl-1-(2-thien-2'-yl-2-oxoethyl)pyridinium] hydrazine dibromide], the “% Improvement in collagen solubility” value in assay [3] (7.5mg/kg) came out at 56.70%. In assay [4] (5 mM test compound), the “% Breakage” value was found to be 53%. Further, the “AGE breaking activity compared to PTB” value in assay [4] (setting [5]) is “superior”.

With `CCOC(=O)C[n+]1cccc(C(=O)NCCOC(=O)c2ccccc2)c1.[Br-]` [Compound 7, 1-(2-ethoxy-2-oxoethyl) -3-(2-(benzoyloxy)ethylaminocarbonyl) pyridinium bromide], in assay [2] (10mM), the “%Inhibition (Day 7)” value came to 51%. Also, the “% Breakage” value in assay [4] (20 mM test compound) was determined as 36%.

As to `O=C(NNC(=O)c1ccc[n+](CC(=O)c2cccs2)c1)c1ccc[n+](CC(=O)c2cccs2)c1.[Cl-].[Cl-]` [Compound 33, N, N'-bis [3-carbonyl-1-(2-thien-2'-yl-2-oxoethyl)pyridinium] hydrazine dichloride], the “Relative Free Radical Scavenging Activity(%) on ABTS” value in assay [1] (11.5µM) was 58.4%; in assay [1] (23 µM), 72.8%; in assay [1] (46 µM), 98.5%; in assay [1] (92.5µM) it was 100%. Besides, the “%Inhibition (Day 7)” value in assay [2] (2.5mM) is recorded as 68.4%. Besides, the “% Improvement in collagen solubility” value in assay [3] (15.0 mg/kg) is on record as 80.45%. Also, the “% Breakage” value in assay [4] (5 mM test compound) stood at 20%. The “AGE breaking activity compared to PTB” value in assay [4] (setting [5]) was “superior”.

As to `O=C(C[n+]1cccc(C(=O)NNC(=O)c2ccc[n+](CC(=O)NC3CC3)c2)c1)NC1CC1` [Compound 39, N, N'-bis-[3-carbonyl-1-(2-cyclopropylamino-2-oxoethyl)pyridinium] hydrazine dichloride], the “Relative Free Radical Scavenging Activity(%) on ABTS” value is listed as 43.0% in assay [1] (11.5µM), 62.8% in assay [1] (23.0µM), 95.6% in assay [1] (46.0µM) and 98% in assay [1] (92.5µM). Besides, the “% Improvement in collagen solubility” value in assay [3] (6.0mg/kg) is recorded as 28.00%. The “% Breakage” value in assay [4] (5 mM test compound) was 22.8%. For the same molecule, the “AGE breaking activity compared to PTB” value in assay [4] (setting [5]) was “superior”.

Consider `CCOC(=O)NNC(=O)c1ccc[n+](CC(=O)c2cccs2)c1` [Compound 54, 1-(2-thien-2'-yl-2-oxoethyl)-3-(ethoxycarbonyl hydrazinocarbonyl) pyridinium bromide], for which the “Relative Free Radical Scavenging Activity(%) on ABTS” value is reported as 5.22% in assay [1] (11.5µM), 15.45% in assay [1] (23.0µM), 46.82% in assay [1] (46.0µM) and 77.07% in assay [1] (92.5µM). The “%Inhibition (Day 7)” value in assay [2] (2.5mM) was found to be 46.3%. Also, in assay [4] (10 mM test compound), the “% Breakage” value was 33.43%.

With `Cc1ccc(C(=O)C[n+]2cccc(C(=O)NNS(C)(=O)=O)c2)s1.[Cl-]` [Compound 63, 1-(2-(5-methylthien-2-yl)-2-oxoethyl)-3-(methanesulfonyl hydrazinocarbonyl) pyridinium chloride], the “Relative Free Radical Scavenging Activity(%) on ABTS” value in assay [1] (11.5µM) was found to be 10.75%; in assay [1] (23.0µM), 47.20%; in assay [1] (46.0µM) it was 88.64%; in assay [1] (92.5µM) it was 99.18%. Further, the “%Inhibition (Day 7)” value in assay [2] (6.25mM) came out at 58.15%. In addition, the “% Breakage” value in assay [4] (10 mM test compound) is reported as 25.17%.

Consider `O=C(NNS(=O)(=O)C(F)(F)F)c1ccc[n+](CC(=O)c2cccs2)c1` [Compound 68, 1-(2-thien-2'-yl-2-oxoethyl)-3-(trifluoromethanesulfonyl hydrazinocarbonyl) - pyridinium bromide], for which the “Relative Free Radical Scavenging Activity(%) on ABTS” value in assay [1] (11.5µM) amounted to 38.47%; in assay [1] (23.0µM), 43.54%; in assay [1] (46.0µM), 89.32%; in assay [1] (92.5µM) it was 95.07%. Also, the “% Breakage” value in assay [4] (10 mM test compound) came out at 92.64%. In addition, the “AGE breaking activity compared to PTB” value in assay [4] (setting [5]) was “superior”. In addition, in assay [4] (setting [5]), the “potency (AGE breaking activity compared to PTB)” value is on record as “significantly much higher”.

As for `O=C(NCCO)c1ccc[n+](CC(=O)c2cccs2)c1` [Compound 90, 1-(2-Thien-2'-yl-2-oxoethyl)-3-((2-hydroxyethyl)aminocarbonyl) pyridinium bromide], the “Relative Free Radical Scavenging Activity(%) on ABTS” value came out at 47.8% in assay [1] (11.5µM); 58.8% in assay [1] (23.0µM); 78.2% in assay [1] (46.0µM); 99.5% in assay [1] (92.5µM); 100% in assay [1] (925µM). Besides, the “% Breakage” value in assay [4] (10 mM test compound) is listed as 50%.

Consider `CCCCOC(=O)c1ccc[n+](CC(=O)Nc2ccccc2)c1.[Cl-]` [Compound 93, 1-(2- Phenylamino-2-oxoethyl) -3-(n-butyloxycarbonyl) pyridinium chloride], for which the “Relative Free Radical Scavenging Activity(%) on ABTS” value stood at 8.5% in assay [1] (11.5µM); 8.6% in assay [1] (23.0µM); 9.6% in assay [1] (46.0µM); 11.4% in assay [1] (92.5µM); 25.0% in assay [1] (925µM). Besides, the “% Breakage” value in assay [4] (10 mM test compound) was 57%.
